We go through 29 molecules from patent US8853246B2 (Dow AgroSciences LLC, priority 2009, dated 2014).

Where two headings read alike, the source gives them in different places.

The subject of data set [1] is Green Peach Aphid (Myzus Persicae). Briefly: Insecticidal test for green peach aphid in foliar spray assay (col. MYZUPE). Type of data set: in vivo. The note with it: Myzus persicae, 72 h, read-out: MYZUPE 200 ppm (Corrected % Control, rating). An outline of the steps: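 Corrected % control derives from microscope counts of live aphids per plant, treated against diluent-only checks, 3 days after foliar spraying at ~25 °C and 40% RH. Test solution was 200 ppm in 0.025% aqueous Tween 20, applied to both leaf sides of infested cabbage seedlings, four pots each.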

Data set [2] concerns Sweetpotato Whitefly-Crawler (Bemisia Tabaci). Kind of data set: Insecticidal test for sweetpotato whitefly-crawler in foliar spray assay (col. BEMITA). Format: in vivo. The note with it: Bemisia tabaci, read-out: BEMITA 200 ppm (Corrected % Control, rating). An outline of the steps:
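Percent control, Abbott-corrected against diluent-sprayed plants, from microscope counts of live nymphs 8-9 days after treatment. Test solution at 200 ppm in 0.025% aqueous Tween 20 applied to both leaf sides of egg-infested cotton after a 5-6 day hatch period (82° F, 50% RH).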

Usually melting point stands for the temperature, or range, at which the solid turns liquid. Molecule `CCN(C(=O)CC[S+](C)[O-])c1sc(-c2cccnc2)nc1C` (stereo not drawn) [Compound 238] came in with a melting point of 89 to 92 °C. Also, in data set [1] (green peach aphid), the pest or weed control at 200 ppm was in the range of 80 to 100%. Further, the pest or weed control at 200 ppm in data set [2] (sweetpotato whitefly-crawler) is 80 to 100%.
`CSCC(C)C(=O)Nc1sc(-c2ccc(Cl)nc2)nc1C` (stereo not drawn) [Compound 169] came in with a melting point of 142 to 146 °C. Besides, the pest or weed control at 200 ppm in data set [1] (green peach aphid) was less than 80%. The pest or weed control at 200 ppm in data set [2] (sweetpotato whitefly-crawler) was 80 to 100%.
As to `Cc1nc(-c2cccnc2)sc1NC(=O)OCc1ccccc1` [Compound 201], the melting point was 137 to 139 °C. Also, in data set [1] (green peach aphid), the pest or weed control at 200 ppm was less than 80%. In data set [2] (sweetpotato whitefly-crawler), the pest or weed control at 200 ppm is less than 80%.
For `Cc1nc(-c2cncc(F)c2)sc1NC(=O)CCS(C)(=O)=O` [Compound 148], the melting point is 230 to 232 °C. Also, in data set [1] (green peach aphid), the pest or weed control at 200 ppm lay in the range of 80 to 100%. Moreover, in data set [2] (sweetpotato whitefly-crawler), the pest or weed control at 200 ppm is less than 80%.
With `CCN(C(=O)c1sc(C)nc1C(F)(F)F)c1sc(-c2cccnc2)nc1Cl` [Compound 548], the melting point was in the range of 102 to 103 °C. In addition, the pest or weed control at 200 ppm in data set [1] (Abbott's correction formula) was 80 to 100%. Also, the pest or weed control at 200 ppm in data set [2] (Abbott's correction formula) lay in the range of 80 to 100%.
The molecule `Cc1nc(-c2cncc(F)c2)sc1NC(=O)C(C)C[S+](C)[O-]` (stereo not drawn) [Compound 145] had a melting point of 194 to 198 °C. In data set [1] (green peach aphid), the pest or weed control at 200 ppm was in the range of 80 to 100%. For the same molecule, the pest or weed control at 200 ppm in data set [2] (sweetpotato whitefly-crawler) is less than 80%.
In the case of `Cc1nc(-c2cncc(F)c2)sc1N(C)C(=S)NC1CC1` [Compound 519, 3-cyclopropyl-1-[2-(5-fluoro-pyridin-3-yl)-4-methyl-thiazol-5-yl]-1-methyl-thiourea], the melting point lay in the range of 117 to 119 °C. Further, the pest or weed control at 200 ppm in data set [1] (Abbott's correction formula) lay within 80 to 100%. The pest or weed control at 200 ppm in data set [2] (Abbott's correction formula) is less than 80%.
On to `CSCC(C)(C)C(=O)N(C)c1cnc(-c2cccnc2)s1` [Compound 29], for which the melting point is 92 to 94 °C. Besides, in data set [1] (green peach aphid), the pest or weed control at 200 ppm was 80 to 100%. Also, the pest or weed control at 200 ppm in data set [2] (sweetpotato whitefly-crawler) was 80 to 100%.
In turn, `CSCC(C)C(=O)Nc1sc(-c2cncc(F)c2)nc1C` (stereo not drawn) [Compound 141] yielded a melting point of 110 to 113 °C. Besides, in data set [1] (green peach aphid), the pest or weed control at 200 ppm is 80 to 100%. In addition, in data set [2] (sweetpotato whitefly-crawler), the pest or weed control at 200 ppm was 80 to 100%.
For the molecule `CSCCC(=O)Nc1sc(-c2cccnc2)nc1SC` [Compound 589, 3-(methylthio)-N-(4-(methylthio)-2-(pyridin-3-yl)thiazol-5-yl)propanamide], the melting point was in the range of 72 to 74 °C. The pest or weed control at 200 ppm in data set [1] (Abbott's correction formula) was less than 80%. In data set [2] (Abbott's correction formula), the pest or weed control at 200 ppm is less than 80%.
Take `CCOC(=O)c1cncc(-c2nc(C)c(NC(=O)OC(C)(C)C)s2)c1` [Compound 160]: the melting point lay within 124 to 128 °C. Moreover, in data set [1] (green peach aphid), the pest or weed control at 200 ppm was less than 80%. In addition, the pest or weed control at 200 ppm in data set [2] (sweetpotato whitefly-crawler) is less than 80%.
Consider `Cc1cncc(-c2nc(C)c(NC(=O)OC(C)(C)C)s2)c1` [Compound 150], for which the melting point fell in the range of 135 to 138 °C. The pest or weed control at 200 ppm in data set [1] (green peach aphid) is 80 to 100%. In data set [2] (sweetpotato whitefly-crawler), the pest or weed control at 200 ppm was less than 80%.
Take `CSCCC(=O)N(C(=O)OC(C)(C)C)c1sc(-c2cncc(F)c2)nc1C#N` [Compound 494]: the melting point lay in the range of 105 to 106 °C. The pest or weed control at 200 ppm in data set [1] (Abbott's correction formula) was less than 80%. Moreover, the pest or weed control at 200 ppm in data set [2] (Abbott's correction formula) is less than 80%.
The molecule `CSC(C)(C)CC(=O)N(C)c1sc(-c2cncc(F)c2)nc1C` [Compound 212] returned a melting point of 73 to 80 °C. Moreover, the pest or weed control at 200 ppm in data set [1] (green peach aphid) lay within 80 to 100%. In data set [2] (sweetpotato whitefly-crawler), the pest or weed control at 200 ppm lay within 80 to 100%.
As to `C=CC(=O)N(C(=O)OC(C)(C)C)c1sc(-c2cccnc2)nc1C` [Compound 205], the melting point is 68 to 70 °C. In addition, the pest or weed control at 200 ppm in data set [1] (green peach aphid) was 80 to 100%. Further, the pest or weed control at 200 ppm in data set [2] (sweetpotato whitefly-crawler) lay in the range of 80 to 100%.
`CN(C(=O)NCC[S+](C)[O-])c1cnc(-c2cncc(F)c2)s1` (stereo not drawn) [Compound 82] yielded a melting point of 202 to 203 °C. The pest or weed control at 200 ppm in data set [1] (green peach aphid) was in the range of 80 to 100%. Besides, the pest or weed control at 200 ppm in data set [2] (sweetpotato whitefly-crawler) was less than 80%.
On the same counts, the results for `Cc1nc(-c2cccnc2)sc1NC(=O)CCCCl` [Compound 209] are 144 to 147 °C, 80 to 100% and less than 80%.
Turning to `Cc1nc(-c2cncc(F)c2)sc1N(C)C(=O)C1CCCN(C(=S)NC2CC2)C1` (stereo not drawn) [Compound 585], the melting point lay within 190 to 192 °C. For the same molecule, the pest or weed control at 200 ppm in data set [1] (Abbott's correction formula) lay within 80 to 100%. Further, the pest or weed control at 200 ppm in data set [2] (Abbott's correction formula) was less than 80%.
Molecule `CC(=O)N(C)c1cnc(-c2cccnc2)s1` [Compound 22] yielded a melting point of 162 to 163 °C. Further, the pest or weed control at 200 ppm in data set [1] (green peach aphid) is less than 80%. In data set [2] (sweetpotato whitefly-crawler), the pest or weed control at 200 ppm is less than 80%.
`CCCC(C)(C)OC(=O)N(C)c1sc(-c2cccnc2)nc1C` [Compound 491] had a melting point of 65 to 69 °C. Also, in data set [1] (Abbott's correction formula), the pest or weed control at 200 ppm lay within 80 to 100%. For the same molecule, in data set [2] (Abbott's correction formula), the pest or weed control at 200 ppm is 80 to 100%.
`CC(C)(C)OC(=O)N(C(=O)OC(C)(C)C)c1cnc(-c2cncc(F)c2)s1` [Compound 277, di(tert-butyl)2-(5-fluoropyridin-3-yl)-1,3-thiazol-5-ylimidodicarbonate] came in with a melting point of 94 to 96 °C. Further, the pest or weed control at 200 ppm in data set [1] (green peach aphid) is 80 to 100%. Besides, the pest or weed control at 200 ppm in data set [2] (sweetpotato whitefly-crawler) was 80 to 100%.
`CCNC(=S)N(C)c1sc(-c2cccnc2)nc1C` [Compound 449] displayed a melting point of 137 to 140 °C. Also, the pest or weed control at 200 ppm in data set [1] (Abbott's correction formula) was 80 to 100%. Besides, the pest or weed control at 200 ppm in data set [2] (Abbott's correction formula) is 80 to 100%.
`Cc1nc(-c2cccnc2)sc1NC(=O)C(C)(C)C[S+](C)[O-]` (stereo not drawn) [Compound 94] registered a melting point of 55 to 60 °C. For the same molecule, the pest or weed control at 200 ppm in data set [1] (green peach aphid) fell in the range of 80 to 100%. In data set [2] (sweetpotato whitefly-crawler), the pest or weed control at 200 ppm was less than 80%.
On the same counts, the results for `CC(CS(C)(=O)=O)C(=O)Nc1sc(-c2cncc(F)c2)nc1Br` (stereo not drawn) [Compound 307] are 185 to 188 °C, 80 to 100% and less than 80%.
On the same counts, the results for `CCCNC(=O)N(C)c1sc(-c2cccnc2)nc1C` [Compound 391] are 150 to 151 °C, 80 to 100% and 80 to 100%.
As for `COCC(C)(C)OC(=O)Nc1sc(-c2cccnc2)nc1C` [Compound 199], the melting point lay in the range of 120 to 123 °C. The pest or weed control at 200 ppm in data set [1] (green peach aphid) fell in the range of 80 to 100%. The pest or weed control at 200 ppm in data set [2] (sweetpotato whitefly-crawler) fell in the range of 80 to 100%.
Turning to `CCN(C(=O)C(C)Cn1nc(C)nc1C)c1sc(-c2cccnc2)nc1Cl` (stereo not drawn) [Compound 541], the melting point lay within 102 to 105 °C. Also, the pest or weed control at 200 ppm in data set [1] (Abbott's correction formula) lay within 80 to 100%. Moreover, the pest or weed control at 200 ppm in data set [2] (Abbott's correction formula) is less than 80%.
Molecule `CC(C)(C)OC(=O)N(C(=O)OC(C)(C)C)c1cnc(-c2cccnc2)s1` [Compound 422] gave a melting point of 114 to 117 °C. Besides, in data set [1] (green peach aphid), the pest or weed control at 200 ppm was 80 to 100%. Moreover, in data set [2] (sweetpotato whitefly-crawler), the pest or weed control at 200 ppm was less than 80%.
For the molecule `CC(CS(C)(=O)=O)C(=O)N(C)c1sc(-c2cnc(Cl)c(F)c2)nc1Cl` (stereo not drawn) [Compound 475], the melting point lay in the range of 55 to 61 °C. The pest or weed control at 200 ppm in data set [1] (Abbott's correction formula) is less than 80%. The pest or weed control at 200 ppm in data set [2] (Abbott's correction formula) is less than 80%.
